Experimental data as given in a melting point compilation (Tetko et al.; mined from patent text by program, amines drawn as free bases though some values may be those of a salt).

melting point [°C] | Structure (SMILES)
178 | CCOc1nn(C(=O)N(CCCF)S(=O)(=O)N=c2[nH]ccs2)c(=O)n1C
289 to 290 | CN(C)C(=O)Cc1nn(-c2ccccc2)c(=O)c2[nH]c3ccc(F)cc3c12
95 to 97 | CNC(=O)C1CC(C)CCC1C(C)C (stereo not drawn)
196 to 197 | CCN(CC)c1ccc(C2(c3ccc(N(CC)CC)cc3N(CC)CC)OC(=O)c3c(Cl)c(Cl)c(Cl)c(Cl)c32)cc1 (stereo not drawn)
114 to 115 | ON=CC1=NCCCS1
144 to 148 | COC(=O)C1=C(C)NC(C)=C(C(=O)OCOC(C)=O)C1c1cccc(Cl)c1Cl (stereo not drawn)
165 to 166 | CCN(CC)c1nc(O)cc(OC)n1
170 to 172 | O=C(c1ccc(Cl)cc1)c1c(N2C(=O)c3ccccc3C2=O)sc(Br)c1CO
127 to 128 | CCCN(CCC)c1nc2cc3c(cc2s1)CC(N)C3 (stereo not drawn)
168 to 169 | OCCOCCn1ccc2ncnc(Nc3ccc(OCc4cccc(F)c4)c(Cl)c3)c21
84 | O=Cc1ccc(Cl)c(-c2ccccc2)c1
60 to 62 | COC(=O)/C=C/c1ccc(Br)s1
147 to 148 | COc1ccc(S(=O)(=O)Nc2cccnc2Nc2cccc(C)c2)cc1
140 to 143 | Nc1c(SC(F)(F)F)c(C=O)nn1-c1c(Cl)cc(CC(F)(F)F)cc1Cl
130 to 135 | O=c1oc(-c2ccccc2)cc(O)c1N(Cc1ccccc1)Cc1ccccc1
74 | c1coc(CCCCCCOc2ccc(C3=NCCO3)cc2)c1
34 to 35 | O=C(OCc1ccccc1[N+](=O)[O-])C(F)(F)C(F)(F)C(F)(F)C(F)(F)C(F)(F)C(F)(F)C(F)(F)F
87 to 88 | CCOC(=O)C(C)(C)Oc1ccc(OCc2oc(-c3ccc(C(F)(F)F)cc3)cc2C(=O)O)cc1
115 to 116 | COC(=O)CCC(=O)c1ccc(-c2ccc(Br)cc2)cc1
188 to 190 | Cn1cc(-c2ncc(-c3ccc4cc(O)ccc4c3)o2)c2ccccc21
132 to 134 | O=C(O)c1nc(I)c2cc(Cc3ccc(F)cc3)cnc2c1OCc1ccccc1
> 300 | Cc1nc(NC(=O)Nc2ccccc2)sc1C(=O)NCc1ccccc1
168 to 169 | CCCS(=O)(=O)c1cc([C@H]2CC[C@H](c3cc(OC)c(OC)c(OC)c3)O2)cc(OC)c1O (relative stereo)

melting point [°C] | Structure (SMILES)
175 to 180 | O=C(Nc1ccc(CN2C(=O)[C@H]3CCC[C@H]3N(C(=O)CN3C(=O)c4ccccc4C3=O)c3ccccc32)cc1)c1ccc(Br)cc1 (relative stereo)
173 | NNc1nccc(-c2ccc3c(ccn3-c3ccccn3)c2)c1Cl
167 to 168 | Cc1ccccc1NC(=O)CN1CC2CCC(C1)N2S(=O)(=O)c1cccc2nonc12
173 to 174 | CN1CCC(O)(c2cccc3ccc(N(Cc4ccccc4)Cc4ccccc4)cc23)CC1
113 to 114 | CCC(NC(C)=O)c1ccc(CN2CCN(c3ccc(F)cc3)CC2)cc1 (stereo not drawn)
159 | CCOC(=O)C1=C(N)NC(C)=CC1c1ccccc1C (stereo not drawn)
200 to 202 | Cc1cn(-c2cc(C=O)c(N)c(C(F)(F)F)c2)c(C)n1
30.5 to 32 | C=CCOc1ccc(OC)c2ccccc12
187 to 189 | CCOc1cc(Cc2cnc(N)nc2N)cc2c1OC(C)(C)C=C2CO
131 to 132 | COc1cc(COc2nn(-c3ccc(C(F)(F)F)cc3)cc2/C=C/C(=O)OCOC(=O)C(C)(C)C)ccc1OCc1nc(-c2ccccc2)oc1C
227 to 228 | CC1Cc2c(n(-c3ccc(Cl)cc3)c3ncccc3c2=O)O1 (stereo not drawn)
262 to 263 | NC(=O)c1cccc(NC(=O)C(F)(F)F)c1
140 to 143 | O=C1N(Cc2ccc(Cl)cc2)c2ccccc2C1(O)c1cccs1 (stereo not drawn)
193 to 194 | COc1ccc(-c2nn(Cc3ccncc3)c(=O)cc2-c2ccncc2)cc1
194 | CN(C)c1cc(N2C(=O)N3CCCC3(Cc3ccc(Br)cc3)C2=O)cc(Cl)n1 (stereo not drawn)
244 to 246 | CCn1cc(C(=O)O)c(=O)c2cc(F)c(N3CCN(C)C(C)C3)cc21 (stereo not drawn)
180 | ON=C(c1cccc(F)c1)c1cccc2nc(N[C@@H]3CCc4ccccc43)ccc12
192 to 193 | CC(=O)Nc1nc(-c2ccc(NS(C)(=O)=O)c(Oc3ccc(F)cc3F)c2)cs1
151 to 154 | O=c1c2ccccc2[nH]n1CC#Cc1ccccc1
78 | CC(C)(C)OC1C2C=CC1C1N=NC21 (stereo not drawn)
233 to 234 | O=C(O)c1c[nH]c(=S)n1C1Cc2cc(F)c(F)cc2C1
104 to 106 | O=c1cc(C(F)(F)F)c2ccc(NCCc3ccccc3)nc2o1
140 | COc1ccc(C(=O)c2cccc(NC(=O)c3ccn4c3CSC4c3cccnc3)c2)cc1 (stereo not drawn)

melting point [°C] | Structure (SMILES)
71.5 to 73 | OCCCc1nc2ccccn2n1
141 to 143 | NC(=O)C(CCC(=O)OCc1ccccc1)N1Cc2c(OCc3ccc(CN4CCOCC4)cc3)cccc2C1=O (stereo not drawn)
103 to 105 | COc1cc(OC)c2c(=O)[nH]c(-c3ccc(OCCN4CCCC4)c(-c4ccc(S(C)=O)cc4)n3)nc2c1 (stereo not drawn)
126 to 127 | Cc1ccc(S(=O)(=O)OCCCC2(C)NC(=O)NC2=O)cc1 (stereo not drawn)
191 to 193 | COc1ccc(-c2cc(=O)c3ccc(OCC(O)CN4CCN(c5ccccc5)CC4)cc3o2)cc1OC (stereo not drawn)
127 to 129 | COc1ccccc1SCC1SCCN1C(=O)CCl (stereo not drawn)
140 to 141 | COc1ccc(F)cc1NC(=O)Nc1ccc(N2CCN(C(=O)Nc3ccc(OCCO)cc3C(F)(F)F)CC2)cc1
> 250 | O=C(O)c1cc(Br)cc(C(=O)C=Cc2ccccc2)c1O
288 to 290 | O=C(O)c1ccc(C(=O)O)c2c(Br)cccc12
204 to 207 | CC(C)c1nc2ccccn2c(=O)c1Br
179 to 181 | Cc1nn(C)c(C)c1CNC(=O)c1ccnc(N2CCN(Cc3ccc(F)cc3)C2=O)c1
172 to 173 | O=C(NCCCN1CCN(c2ncccn2)CC1)NC12CC3CC(CC(C3)C1)C2
244 | O=C1COc2cc(Br)c(F)cc2N1
50 to 51.5 | O=[N+]([O-])c1ccc(F)c(Br)c1F
41 to 43 | O=C(c1ccccc1)c1ccc(Br)s1
210 to 211 | CCCCc1nc2c(N)nc3ccccc3c2n1CCNS(C)(=O)=O
133 to 134 | CCc1c(-c2ccc(OCc3ccccc3)cc2)c2c(CO)cc3c(OCc4ccccc4)ccc1n32
73 to 74 | CC(CO)c1ccc(-c2ccccc2F)cc1 (stereo not drawn)
231 to 240 | COc1ccc(Nc2ccc(Nc3ncnc4cc(-c5cccs5)sc34)cc2)cc1
210 to 215 | CCc1nc(NC)sc1C(=O)c1ccc(N)c([N+](=O)[O-])c1
54 to 56 | Nc1ccc(CCCO)cc1
213 to 214 | COc1ccc(Cn2cc(C(=O)NCCN(C)C)c3nc4c(C)cccc4cc3c2=O)cc1OC
92 | CC(=O)OC1CSC(Oc2cccc(-c3cnccn3)c2)C(OC(C)=O)C1OC(C)=O (stereo not drawn)

melting point [°C] | Structure (SMILES)
120 to 121 | Clc1ccc2ncc(Cl)n2n1
115 to 120 | C=CC(=O)OCCOc1ccc(-c2nc(-c3ccc(Cl)cc3)nc(-c3ccc(OCCOC(=O)C=C)cc3O)n2)c(O)c1
156 to 157 | COC(=O)C1=C(C(F)F)NC(C)=C(C(=O)OC(C)C)C1c1cccc(Cl)c1Cl (stereo not drawn)
206 to 207 | COc1cc(-n2cc(F)c(F)c2)ccc1-n1cc(OC)c(=O)c(-c2ccnn2-c2ccccc2)n1
161 to 163 | O=C(COc1cccc(-n2nc(-c3ccc(F)cc3)c3cccnc32)c1)NCCO
72 to 74 | COC(=O)[C@H](CS)NC(=O)[C@H](CO)NC(=O)OC(C)(C)C
234 | COc1cc(NC(=O)Oc2ccccc2)ccc1S(=O)(=O)n1c(=O)n(C2CCCCCC2)c2cc(Cl)ccc21
161 to 162 | O=C(O)C(=O)c1ccc(SCCOc2ccc3ccccc3c2)cc1
111 to 115 | CCc1nc2c(OCc3ccccc3)cc(Br)cc2n1C
280 to 283 | O=C(CCNc1c(C(=O)O)[nH]c2cc(Cl)cc(Cl)c12)c1ccccc1Cc1ccccc1
88 to 93 | COc1cc(C)c(C(=O)c2c(C)cncc2Br)c(OC)c1OC
114 to 115 | CCOC(=O)c1cc(=O)c2ccccc2n1C
> 250 | CNS(=O)(=O)c1ccc(NN=C2C(=O)Nc3ccc(C(N)=O)cc32)cc1
91 | CC(C)(C)c1cc(S[C@@H]2CCCC[C@H]2O)cc(C(C)(C)C)c1O (relative stereo)
106 to 108 | CCc1cc(C(C)C)c(-c2ccc(O)cc2)cc1C
184 to 185 | CCOc1c(C)cnc(CSc2nc3cc4c(cc3[nH]2)OCO4)c1C
158 to 160 | Cc1cccc(-c2nc(N)sc2-c2ccnc(-c3ccc(C(=O)N4CCOCC4)cc3)c2)n1
221 to 222 | Cc1c(F)c(F)c(F)c2c1c(=O)c(C(=O)O)cn2-c1cccs1
118 to 122 | CCCCc1oc2ccccc2c1C(=O)NCc1ccc2c(-c3ccc(OC)cc3)c(O)ccc2c1
211 to 214 | CSc1c(C#N)nn(-c2c(Br)cc(C(F)(F)F)cc2Br)c1N
100 to 104 | OCc1ncc(-c2ccc(Cl)cc2)o1
273 to 275 | CCC(CC)NC(=O)c1cc(-c2cnc3[nH]cc(C(=O)C4(C)CCCCC4)c3n2)cs1

Structure (SMILES) | melting point [°C]
COC1=CC23CCN(C)C(Cc4ccc(OC)c(Oc5ccccc5)c42)C3=CC1C (stereo not drawn) | 177 to 178
CC12CCC3C(CC(O)C4(O)CC=CCC34C)C1CCC2=O (stereo not drawn) | 183 to 186
COc1ccc2c(CCNCC#N)c[nH]c2c1 | 80
COC(=O)C[C@H]1N=C(c2ccccc2Cl)c2cc(Cl)ccc2NC1=O | 168 to 170
CCCCCCc1cc2c(s1)-n1c(C)nnc1CN=C2c1ccccc1OC | 128 to 130
CS(=O)(=O)OCCN(CCOS(C)(=O)=O)c1ccc([N+](=O)[O-])c(C(=O)O)c1[N+](=O)[O-] | 200 to 210
COc1cccc([C@@]23CCN(C)C[C@@H]2Cc2cc4ccccc4nc2C3)c1 | 154 to 156
